The text below walks through data of ChEMBL document CHEMBL5360655, “Design, Synthesis, and Biological Evaluation of Novel P2X7 Receptor Antagonists for the Treatment of Septic Acute Kidney Injury” (J Med Chem, 2023).

Active and inactive are the calls of the source. The calls are words filed in the database; no cut-off is given here.

Data set [1] in a line: AUC(0 to t) in BALB/c mouse at 10 mg/kg, iv measured for 24 hrs by LC-MS/MS analysis. In kind it is ADME, organism-based. On the set-up: time 24 hrs, dose 10 mg/kg, route iv. The conditions noted are these: in vivo.
Data set [2] relates to Mus musculus. The experiment in a line: Reno-protective activity against CLP-induced acute kidney injury C57BL/6J mouse model assessed as decrease in IL-18 mRNA expression in kidney at 20 mg/kg, ip administered twice at 30 mins prior to CLP operation and 8 hrs post-CLP operation and measured at 16 hrs post-CLP operation by RT-qPCR analysis. The conditions noted are these: time 16.5 hrs. In kind it is functional, organism-based. Background: In qPCR the cycle at which signal appears reflects the starting amount.

Data set [3] has as its target T1, P2X purinoceptor 7 (Mus musculus, UniProt Q9Z1M0).
T1 sequence (Q9Z1M0 whole entry): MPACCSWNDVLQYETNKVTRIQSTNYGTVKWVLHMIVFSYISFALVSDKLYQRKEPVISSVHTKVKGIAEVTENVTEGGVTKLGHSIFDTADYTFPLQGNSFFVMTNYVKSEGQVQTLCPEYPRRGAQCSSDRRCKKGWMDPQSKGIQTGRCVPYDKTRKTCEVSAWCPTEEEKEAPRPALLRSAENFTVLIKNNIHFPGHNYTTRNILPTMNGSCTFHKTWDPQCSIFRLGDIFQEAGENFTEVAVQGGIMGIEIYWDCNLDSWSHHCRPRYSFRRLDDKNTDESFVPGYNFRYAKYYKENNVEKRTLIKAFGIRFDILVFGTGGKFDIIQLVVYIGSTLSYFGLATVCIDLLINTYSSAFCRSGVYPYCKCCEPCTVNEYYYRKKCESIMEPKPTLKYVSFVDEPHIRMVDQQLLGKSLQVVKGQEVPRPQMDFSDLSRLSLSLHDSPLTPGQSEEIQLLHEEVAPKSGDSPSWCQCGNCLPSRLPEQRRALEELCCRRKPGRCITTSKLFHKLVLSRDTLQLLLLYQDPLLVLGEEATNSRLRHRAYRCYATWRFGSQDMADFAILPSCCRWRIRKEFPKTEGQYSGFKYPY
The experiment in a line: Antagonist activity at mouse P2X7 receptor expressed in HEK293 cells assessed as inhibition of ATP-induced receptor pore formation by propidium iodide dye uptake based fluorescence analysis. In kind it is cell-based.

Data set [4] relates to Mus musculus. Briefly: Reno-protective activity against CLP-induced acute kidney injury C57BL/6J mouse model assessed as decrease in Tnfa-gene expression in kidney at 20 mg/kg, ip administered twice at 30 mins prior to CLP operation and 8 hrs post-CLP operation and measured at 16 hrs post-CLP operation by RNA sequencing analysis. In kind it is functional, organism-based. The conditions noted are these: time 16.5 hrs.

The test system of another data set is HEK293. Briefly: Cytotoxicity against human HEK293 cells transfected with mouse P2X7 receptor assessed as effect on cell viability at 1 to 4 uM incubated for 2 hrs by CCK8 assay. In kind it is toxicity, cell-based. The conditions noted are these: hek293, 2 h, dose 1-4 µM. For orientation: Tetrazolium dyes change colour on reduction, which living cells bring about.

Data set [5] concerns Mus musculus. Briefly: Reno-protective activity against CLP-induced acute kidney injury C57BL/6J mouse model assessed as decrease in cleaved IL-1 beta protein expression in kidney at 20 mg/kg, ip administered twice at 30 mins prior to CLP operation and 8 hrs post-CLP operation and measured at 16 hrs post-CLP operation by western blot analysis. In kind it is functional, organism-based. The conditions noted are these: time 16.5 hrs. A general note: A western blot detects proteins with antibodies after separation by electrophoresis.

In a further data set the target is T2, Cytochrome P450 1A2 (Homo sapiens, UniProt P05177).
T2 sequence (P05177 whole entry): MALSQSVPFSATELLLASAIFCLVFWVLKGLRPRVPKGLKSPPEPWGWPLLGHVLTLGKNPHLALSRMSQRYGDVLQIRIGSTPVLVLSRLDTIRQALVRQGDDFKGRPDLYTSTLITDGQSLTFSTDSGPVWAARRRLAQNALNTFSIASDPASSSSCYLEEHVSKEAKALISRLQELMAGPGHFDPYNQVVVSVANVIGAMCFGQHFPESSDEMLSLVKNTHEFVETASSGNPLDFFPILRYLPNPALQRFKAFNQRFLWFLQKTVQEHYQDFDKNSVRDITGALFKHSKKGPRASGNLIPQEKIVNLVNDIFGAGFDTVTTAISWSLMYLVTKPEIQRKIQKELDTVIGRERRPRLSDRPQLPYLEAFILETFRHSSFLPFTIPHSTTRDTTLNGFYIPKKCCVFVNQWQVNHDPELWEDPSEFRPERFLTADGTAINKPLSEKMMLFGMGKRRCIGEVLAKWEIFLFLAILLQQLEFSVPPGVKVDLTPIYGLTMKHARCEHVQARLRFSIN
Briefly: Inhibition of CYP1A2 in human liver microsomes using phenacetin as substrate upto 100 uM incubated for 10 mins in presence of NADPH by LC-MS/MS analysis. In kind it is ADME, Microsome.

Data set [6] concerns the target Voltage-gated inwardly rectifying potassium channel KCNH2 (Homo sapiens, UniProt Q12809). The experiment in a line: Inhibition of hERG expressed in CHO cells. In kind it is toxicity, cell-based.
Data set [7] in a line: Half life in BALB/c mouse at 10 mg/kg, iv measured for 24 hrs by LC-MS/MS analysis. In kind it is ADME, organism-based. The conditions noted are these: in vivo.
The target in data set [8] is T3, P2X purinoceptor 7 (Homo sapiens, UniProt Q99572).
T3 sequence (Q99572 whole entry): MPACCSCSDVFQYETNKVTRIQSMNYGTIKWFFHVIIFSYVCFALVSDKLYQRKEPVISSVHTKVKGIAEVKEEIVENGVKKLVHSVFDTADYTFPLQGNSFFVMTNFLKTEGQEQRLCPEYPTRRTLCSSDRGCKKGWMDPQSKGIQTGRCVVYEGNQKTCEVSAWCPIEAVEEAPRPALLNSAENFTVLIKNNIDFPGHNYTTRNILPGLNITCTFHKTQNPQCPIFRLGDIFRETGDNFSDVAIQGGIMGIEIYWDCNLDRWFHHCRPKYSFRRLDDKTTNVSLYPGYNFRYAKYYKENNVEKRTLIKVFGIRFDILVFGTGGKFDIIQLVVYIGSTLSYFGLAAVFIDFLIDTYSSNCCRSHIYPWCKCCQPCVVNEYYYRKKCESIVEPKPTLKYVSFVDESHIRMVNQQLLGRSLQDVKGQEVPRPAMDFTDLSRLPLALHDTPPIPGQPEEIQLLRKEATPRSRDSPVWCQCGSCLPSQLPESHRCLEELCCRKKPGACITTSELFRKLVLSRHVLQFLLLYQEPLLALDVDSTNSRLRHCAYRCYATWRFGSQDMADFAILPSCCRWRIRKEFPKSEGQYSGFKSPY
The experiment in a line: Antagonist activity at P2X7 receptor in human THP-1 cells assessed as inhibition of ATP-induced IL-1beta secretion pretreated with LPS for 3 hrs followed by incubation with compound for 40 mins followed by treatment with ATP for 1 hr by ELISA. In kind it is cell-based.

Data set [9] can be described thus: Half life in human liver microsomes. In kind it is ADME, Microsome.
Data set [10] concerns Mus musculus. Briefly: Reno-protective activity against LPS-induced acute kidney injury C57BL/6J mouse model assessed as decrease in KIM1 mRNA expression in kidney at 5 to 20 mg/kg, ip administered twice at 30 mins prior to LPS challenge and 8 hrs post-LPS challenge and measured at 16 hrs post-LPS challenge by RT-qPCR analysis. In kind it is functional, organism-based. The conditions noted are these: dose 5-20 mg/kg, time 16.5 hrs.

Data set [11] in a line: Intrinsic clearance in human liver microsomes. In kind it is ADME, Microsome. The conditions noted are these: read-out: CLH.
The next data set deals with Cytochrome P450 2C9 (Homo sapiens, UniProt P11712). The experiment in a line: Inhibition of CYP2C9 in human liver microsomes using tolbutamide as substrate upto 100 uM incubated for 10 mins in presence of NADPH by LC-MS/MS analysis. In kind it is ADME, Microsome.
Cytochrome P450 2C9, sequence (P11712 whole entry): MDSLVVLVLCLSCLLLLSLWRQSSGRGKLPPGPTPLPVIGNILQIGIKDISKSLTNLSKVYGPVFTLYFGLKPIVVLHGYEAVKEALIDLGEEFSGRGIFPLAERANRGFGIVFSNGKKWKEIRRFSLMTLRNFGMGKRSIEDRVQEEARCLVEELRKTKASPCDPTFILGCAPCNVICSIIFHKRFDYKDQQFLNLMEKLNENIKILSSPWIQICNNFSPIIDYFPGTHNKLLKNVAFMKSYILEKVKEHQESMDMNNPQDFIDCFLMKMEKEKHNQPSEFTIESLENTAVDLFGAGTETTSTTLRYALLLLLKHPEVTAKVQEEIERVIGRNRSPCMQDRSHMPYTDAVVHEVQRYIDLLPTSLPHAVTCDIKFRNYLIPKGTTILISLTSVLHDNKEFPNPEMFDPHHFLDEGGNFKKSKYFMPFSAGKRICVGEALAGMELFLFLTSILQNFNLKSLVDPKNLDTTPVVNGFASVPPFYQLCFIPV

Voltage-gated inwardly rectifying potassium channel KCNH2, sequence (Q12809 whole entry): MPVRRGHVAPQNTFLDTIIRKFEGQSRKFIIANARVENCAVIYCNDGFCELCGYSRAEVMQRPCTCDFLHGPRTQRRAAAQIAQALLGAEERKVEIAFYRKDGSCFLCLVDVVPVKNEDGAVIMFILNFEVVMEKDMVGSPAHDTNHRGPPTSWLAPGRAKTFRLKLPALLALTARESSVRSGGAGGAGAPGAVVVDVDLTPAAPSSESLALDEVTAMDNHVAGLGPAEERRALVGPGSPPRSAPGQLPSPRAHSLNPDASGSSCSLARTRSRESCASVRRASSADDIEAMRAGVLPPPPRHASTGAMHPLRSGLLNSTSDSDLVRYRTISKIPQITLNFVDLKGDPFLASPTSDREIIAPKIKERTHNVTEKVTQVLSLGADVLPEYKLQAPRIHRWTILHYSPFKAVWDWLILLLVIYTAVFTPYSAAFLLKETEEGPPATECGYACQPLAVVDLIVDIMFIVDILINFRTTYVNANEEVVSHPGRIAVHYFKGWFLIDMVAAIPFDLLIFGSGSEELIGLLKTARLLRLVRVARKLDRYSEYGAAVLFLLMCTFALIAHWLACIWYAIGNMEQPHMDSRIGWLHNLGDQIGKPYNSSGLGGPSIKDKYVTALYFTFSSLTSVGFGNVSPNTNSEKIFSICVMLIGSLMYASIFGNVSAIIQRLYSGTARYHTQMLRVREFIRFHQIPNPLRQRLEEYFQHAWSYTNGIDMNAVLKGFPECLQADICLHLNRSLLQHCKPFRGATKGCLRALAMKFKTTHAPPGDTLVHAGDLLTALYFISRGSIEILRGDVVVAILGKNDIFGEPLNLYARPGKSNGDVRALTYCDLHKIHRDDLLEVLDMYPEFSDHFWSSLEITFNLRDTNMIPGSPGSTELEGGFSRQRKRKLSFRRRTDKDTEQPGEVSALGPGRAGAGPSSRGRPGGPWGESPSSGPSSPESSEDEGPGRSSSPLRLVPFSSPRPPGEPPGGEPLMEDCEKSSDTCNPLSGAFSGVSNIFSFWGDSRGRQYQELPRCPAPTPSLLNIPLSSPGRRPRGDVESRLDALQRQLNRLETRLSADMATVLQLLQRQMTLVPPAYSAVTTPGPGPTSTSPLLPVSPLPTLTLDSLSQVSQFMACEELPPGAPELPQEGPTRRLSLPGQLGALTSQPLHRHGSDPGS

Regarding `CS(=O)(=O)c1ccc(-c2nc(C(=O)NCc3cn(-c4cc(Br)ccn4)nn3)cs2)cc1`, the exposure AUC(0-t) (usually exposure summed from dosing to a finite time, without extrapolation to infinity) at 24 h in data set [1] stood at 16600 ng·h/mL. Besides, the result in the data set on Mus musculus [2], in the data set on Mus musculus [4] and with Mus musculus [5] was Active. Moreover, the 50% inhibitory concentration (IC50) (commonly the concentration needed to halve the response being measured) at P2X purinoceptor 7 [3] was 10.1 nM; in [6], more than 30 µM; on P2X purinoceptor 7 [8] it was 327 nM. Also, the Activity entry was “Non-Toxic” with HEK293 and “Dose-Dependent Effect” in the data set with Mus musculus [10]. Moreover, the “inhibition (INH)” value at Cytochrome P450 1A2 and at Cytochrome P450 2C9 was “Not Active” each time. Besides, the half-life (as a rule, the time in which the quantity being followed falls by half) in data set [7] is 319 min; in data set [9], 105 min. Further, the CLint scaled in [11] came out at 16.6 mL/min/kg.
